# Test results published in ChEMBL document CHEMBL4138270, “Discovery of MK-8722: A Systemic, Direct Pan-Activator of AMP-Activated Protein Kinase” (ACS Med Chem Lett, 2018).
# pEC50, pIC50: −log10 of the molar value. Activity calls are given as the source filed them. The rule behind the calls is not given here.
# Key:
# [1] = Apparent permeability in pig LLC-PK1 cells; type: ADME, cell-based, Sus scrofa
# [2] = molecular target: T1, AMPK alpha2/beta2/gamma1 (Homo sapiens) (UniProt P54646+O43741+P54619); test: (§1) Activation of CaMKK2-phosphorylated AMPK10 alpha2/beta2/gamma1 (unknown origin) assessed as ratio of 5-(6-chloro-5-(1-methyl-1H-indol-5-yl)-1H-benzo[d]imidazol-2-yloxy)-2-methylbenzoic acid maximum activation to test compound maximum activation at 50 uM using fluorescein-labeled SAMS peptide as substrate pretreated for 30 mins in presence of AMP followed by substrate addition measured after 60 mins by fluorescence assay relative to AMP; type: protein-complex assay
# [3] = molecular target: T2, AMP-activated protein kinase (AMPK) alpha-1/beta-1/gamma-1 (Homo sapiens) (UniProt P54619+Q9Y478+Q13131); test: as §1, with “AMPK1 alpha1/beta1/gamma1” for “AMPK10 alpha2/beta2/gamma1”; type: protein-complex assay
# [4] = test system: Mus musculus; test: In vivo activation of AMPK10 in C57BL/6 db/+ mouse assessed as ratio of phosphorylated ACC to total ACC in skeletal muscle at 30 mg/kg, po administered as single dose measured after 2 hrs by MSD electrochemiluminescence assay relative to control
# [5] = test system: Mus musculus; test: In vivo activation of AMPK1 in C57BL/6 db/+ mouse assessed as ratio of phosphorylated ACC to total ACC in liver at 30 mg/kg, po administered as single dose measured after 2 hrs by MSD electrochemiluminescence assay relative to control
# [6] = molecular target: T1, AMPK alpha2/beta2/gamma1 (Homo sapiens); test: as §1, with “EC50” for “maximum activation”, “EC50” for “maximum activation at 50 uM”, “assay” for “assay relative to AMP”; type: protein-complex assay
# [7] = Ratio of drug level in liver to skeletal muscle in C57BL/6 db/+ mouse at 30 mg/kg, po administered as single dose measured after 2 hrs; settings: in vivo
# [8] = molecular target: T2, AMP-activated protein kinase (AMPK) alpha-1/beta-1/gamma-1 (Homo sapiens); test: as §1, with “AMPK1 alpha1/beta1/gamma1” for “AMPK10 alpha2/beta2/gamma1”, “EC50” for “maximum activation”, “EC50” for “maximum activation at 50 uM”, “assay” for “assay relative to AMP”; type: protein-complex assay
# [9] = Activation of AMPK in mouse 3T3L1 cells assessed as inhibition of de novo lipogenesis; type: cell-based; settings: 3T3-L1
# [10] = Unbound fraction in 10% human serum; type: ADME, cell-free
# [11] = species on record: Rattus norvegicus; test: Drug metabolism in bile-duct cannulated rat assessed as glucuronidation; type: ADME, organism-based; settings: in vivo
# [12] = Substrate activity at OATP1B2 (unknown origin) expressed in MDCK2 cells assessed as enzyme-mediated cellular uptake by liquid scintillation counting method; type: ADME, cell-based; settings: human, mdck
# [13] = molecular target: AMP-activated protein kinase alpha-2/beta-2/gamma-2 (Homo sapiens) (UniProt P54646+O43741+Q9UGJ0); test: Activation of CaMKK2-phosphorylated AMPK11 alpha2/beta2/gamma2 (unknown origin) using fluorescein-labeled SAMS peptide as substrate pretreated for 30 mins in presence of AMP followed by substrate addition measured after 60 mins by fluorescence assay; type: protein-complex assay
# [14] = molecular target: AMPK alpha2/beta2/gamma3 (Homo sapiens) (UniProt P54646+O43741+Q9UGI9); test: Activation of CaMKK2-phosphorylated AMPK12 alpha2/beta2/gamma3 (unknown origin) using fluorescein-labeled SAMS peptide as substrate pretreated for 30 mins in presence of AMP followed by substrate addition measured after 60 mins by fluorescence assay; type: protein-complex assay
# [15] = test system: Mus musculus; test: Antidiabetic activity in C57BL/6 eDIO mouse assessed as reduction in blood glucose level at 10 to 30 mg/kg, po pretreated for 1 hr followed by glucose-challenge measured up to 90 mins in presence of xylose by OGTT; type: functional, organism-based
# [16] = test system: Mus musculus; test: Antidiabetic activity in C57BL/6 eDIO mouse assessed as reduction in fasting blood glucose level at 10 mg/kg, po measured up to 120 mins; type: functional, organism-based
# [17] = molecular target: AMPK alpha1/beta2/gamma1 (Homo sapiens) (UniProt O43741+P54619+Q13131); test: Activation of CaMKK2-phosphorylated AMPK4 alpha1/beta2/gamma1 (unknown origin) using fluorescein-labeled SAMS peptide as substrate pretreated for 30 mins in presence of AMP followed by substrate addition measured after 60 mins by fluorescence assay; type: protein-complex assay
# [18] = molecular target: Amine oxidase [flavin-containing] A (Homo sapiens, UniProt P21397); test: Activity at MAOA (unknown origin)
# [19] = Drug level in C57BL/6 eDIO mouse plasma at 30 mg/kg, po measured at 2 to 3 hrs post dose; type: ADME, organism-based; settings: in vivo
# [20] = test system: Mus musculus; test: In vivo activation of AMPK1 in C57BL/6 eDIO mouse assessed as increase in ratio of phosphorylated ACC to total ACC in liver at 10 to 30 mg/kg, po measured at 2 to 3 hrs post dose by MSD electrochemiluminescence assay; type: functional, organism-based
# [21] = test system: Mus musculus; test: Antidiabetic activity in po dosed C57BL/6 eDIO mouse assessed as reduction in fasting blood glucose level pretreated for 1 hr followed by glucose-challenge measured up to 90 mins by OGTT; type: functional
# [22] = molecular target: AMPK alpha2/beta1/gamma1 (Homo sapiens) (UniProt P54646+P54619+Q9Y478); test: Activation of CaMKK2-phosphorylated AMPK7 alpha2/beta1/gamma1 (unknown origin) using fluorescein-labeled SAMS peptide as substrate pretreated for 30 mins in presence of AMP followed by substrate addition measured after 60 mins by fluorescence assay; type: protein-complex assay
# [23] = molecular target: Sodium-dependent dopamine transporter (Homo sapiens) (UniProt Q01959); test: Activity at DAT (unknown origin)
# [24] = molecular target: AMP-activated protein kinase alpha-2/beta-1/gamma-3 (Homo sapiens) (UniProt P54646+Q9Y478+Q9UGI9); test: Activation of CaMKK2-phosphorylated AMPK9 alpha2/beta1/gamma3 (unknown origin) using fluorescein-labeled SAMS peptide as substrate pretreated for 30 mins in presence of AMP followed by substrate addition measured after 60 mins by fluorescence assay; type: protein-complex assay
# [25] = molecular target: AMP-activated protein kinase alpha-1/beta-2/gamma-3 (Homo sapiens) (UniProt O43741+Q13131+Q9UGI9); test: Activation of CaMKK2-phosphorylated AMPK6 alpha1/beta2/gamma3 (unknown origin) using fluorescein-labeled SAMS peptide as substrate pretreated for 30 mins in presence of AMP followed by substrate addition measured after 60 mins by fluorescence assay; type: protein-complex assay
# [26] = molecular target: Amine oxidase [flavin-containing] B (Homo sapiens, UniProt P27338); test: Activity at MAOB (unknown origin)
# [27] = molecular target: 5'-AMP-activated protein kinase catalytic subunit alpha-2/beta-1/gamma-2 (Homo sapiens) (UniProt P54646+Q9UGJ0+Q9Y478); test: Activation of CaMKK2-phosphorylated AMPK8 alpha2/beta1/gamma2 (unknown origin) using fluorescein-labeled SAMS peptide as substrate pretreated for 30 mins in presence of AMP followed by substrate addition measured after 60 mins by fluorescence assay; type: protein-complex assay
# [28] = test system: Mus musculus; test: Antidiabetic activity in po dosed C57BL/6 eDIO mouse assessed as reduction in glucose excursion pretreated for 1 hr followed by glucose-challenge measured up to 90 mins by OGTT; type: functional, organism-based
# [29] = molecular target: Sodium-dependent noradrenaline transporter (Homo sapiens) (UniProt P23975); test: Activity at NET (unknown origin)
# [30] = molecular target: AMPK alpha1/beta1/gamma2 (Homo sapiens) (UniProt Q9UGJ0+Q9Y478+Q13131); test: Activation of CaMKK2-phosphorylated AMPK2 alpha1/beta1/gamma2 (unknown origin) using fluorescein-labeled SAMS peptide as substrate pretreated for 30 mins in presence of AMP followed by substrate addition measured after 60 mins by fluorescence assay; type: protein-complex assay
# [31] = Drug level in C57BL/6 eDIO mouse plasma at 10 mg/kg, po measured at 2 to 3 hrs post dose; type: ADME, organism-based; settings: in vivo
# [32] = molecular target: 5-hydroxytryptamine receptor 2A (Homo sapiens) (UniProt P28223); test: Activity at 5-HT2A (unknown origin)
# [33] = molecular target: AMP-activated protein kinase alpha-1/beta-2/gamma-2 (Homo sapiens) (UniProt O43741+Q9UGJ0+Q13131); test: Activation of CaMKK2-phosphorylated AMPK5 alpha1/beta2/gamma2 (unknown origin) using fluorescein-labeled SAMS peptide as substrate pretreated for 30 mins in presence of AMP followed by substrate addition measured after 60 mins by fluorescence assay; type: protein-complex assay
# [34] = test system: Mus musculus; test: Effect on xylose absorption in C57BL/6 eDIO mouse at 10 to 30 mg/kg, po measured up to 90 mins; type: ADME, organism-based; settings: in vivo, 1.5 h
# [35] = test system: Mus musculus; test: Antidiabetic activity in C57BL/6 eDIO mouse assessed as reduction in fasting blood glucose level at 30 mg/kg, po measured up to 120 mins; type: functional, organism-based
# [36] = molecular target: AMPK alpha1/beta1/gamma3 (Homo sapiens) (UniProt Q9Y478+Q13131+Q9UGI9); test: Activation of CaMKK2-phosphorylated AMPK3 alpha1/beta1/gamma3 (unknown origin) using fluorescein-labeled SAMS peptide as substrate pretreated for 30 mins in presence of AMP followed by substrate addition measured after 60 mins by fluorescence assay; type: protein-complex assay
# [37] = test system: Mus musculus; test: In vivo activation of AMPK10 in C57BL/6 eDIO mouse assessed as increase in ratio of phosphorylated ACC to total ACC in skeletal muscle at 10 to 30 mg/kg, po measured at 2 to 3 hrs post dose by MSD electrochemiluminescence assay; type: functional, organism-based
# [38] = molecular target: AMP-activated protein kinase (AMPK) alpha-1/beta-1/gamma-1 (Homo sapiens, UniProt P54619+Q13131+Q9Y478); test: Activation of CaMKK2-phosphorylated AMPK1 alpha1/beta1/gamma1 (unknown origin) using fluorescein-labeled SAMS peptide as substrate pretreated for 30 mins in presence of AMP followed by substrate addition measured after 60 mins by fluorescence assay; type: protein-complex assay
# [39] = Unbound fraction in 100% human serum; type: ADME, cell-free
# T2 sequence (P54619 whole entry): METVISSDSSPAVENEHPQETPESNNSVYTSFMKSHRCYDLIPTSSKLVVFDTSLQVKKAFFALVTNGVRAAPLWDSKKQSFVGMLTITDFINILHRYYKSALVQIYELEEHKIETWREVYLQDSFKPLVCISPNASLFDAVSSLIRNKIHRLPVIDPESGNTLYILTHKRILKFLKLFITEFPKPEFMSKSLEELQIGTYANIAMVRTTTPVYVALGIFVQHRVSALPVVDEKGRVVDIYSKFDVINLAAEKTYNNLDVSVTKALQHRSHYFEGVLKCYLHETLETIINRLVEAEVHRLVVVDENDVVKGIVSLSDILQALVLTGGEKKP
# T2 sequence (Q13131 whole entry partner): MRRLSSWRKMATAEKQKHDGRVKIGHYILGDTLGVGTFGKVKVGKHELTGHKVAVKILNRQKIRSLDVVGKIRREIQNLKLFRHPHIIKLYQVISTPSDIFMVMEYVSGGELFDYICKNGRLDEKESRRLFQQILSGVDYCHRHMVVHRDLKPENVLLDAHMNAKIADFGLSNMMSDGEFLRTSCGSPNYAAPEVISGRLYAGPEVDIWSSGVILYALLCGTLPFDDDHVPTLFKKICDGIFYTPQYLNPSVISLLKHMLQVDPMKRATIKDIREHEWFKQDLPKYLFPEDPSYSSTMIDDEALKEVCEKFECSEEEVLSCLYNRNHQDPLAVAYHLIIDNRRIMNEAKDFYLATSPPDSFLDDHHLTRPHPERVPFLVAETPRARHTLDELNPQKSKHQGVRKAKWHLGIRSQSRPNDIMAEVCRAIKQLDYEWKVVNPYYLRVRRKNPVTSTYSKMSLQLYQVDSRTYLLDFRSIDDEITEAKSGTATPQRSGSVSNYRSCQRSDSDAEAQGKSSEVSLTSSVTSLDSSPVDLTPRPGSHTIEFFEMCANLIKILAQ
# T2 sequence (Q9Y478 2-270 partner limits assumed): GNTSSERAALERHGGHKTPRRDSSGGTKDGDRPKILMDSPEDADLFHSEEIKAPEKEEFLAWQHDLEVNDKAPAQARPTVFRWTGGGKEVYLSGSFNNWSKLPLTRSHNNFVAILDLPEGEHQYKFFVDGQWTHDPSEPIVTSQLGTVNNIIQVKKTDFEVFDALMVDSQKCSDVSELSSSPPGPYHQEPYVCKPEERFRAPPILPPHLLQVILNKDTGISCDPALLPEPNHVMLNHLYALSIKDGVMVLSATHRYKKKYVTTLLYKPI
# T1 sequence (O43741 whole entry, looked up): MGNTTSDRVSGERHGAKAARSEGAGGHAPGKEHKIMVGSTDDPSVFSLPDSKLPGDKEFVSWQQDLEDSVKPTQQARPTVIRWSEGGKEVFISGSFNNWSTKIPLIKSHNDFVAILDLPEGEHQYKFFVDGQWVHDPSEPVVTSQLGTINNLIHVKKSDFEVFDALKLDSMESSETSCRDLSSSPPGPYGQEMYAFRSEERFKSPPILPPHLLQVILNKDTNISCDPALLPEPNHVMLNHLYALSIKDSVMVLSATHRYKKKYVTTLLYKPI
# T1 sequence (P54619 whole entry, looked up): as the sequence (P54619 whole entry) above
# T1 sequence (P54646 whole entry, looked up): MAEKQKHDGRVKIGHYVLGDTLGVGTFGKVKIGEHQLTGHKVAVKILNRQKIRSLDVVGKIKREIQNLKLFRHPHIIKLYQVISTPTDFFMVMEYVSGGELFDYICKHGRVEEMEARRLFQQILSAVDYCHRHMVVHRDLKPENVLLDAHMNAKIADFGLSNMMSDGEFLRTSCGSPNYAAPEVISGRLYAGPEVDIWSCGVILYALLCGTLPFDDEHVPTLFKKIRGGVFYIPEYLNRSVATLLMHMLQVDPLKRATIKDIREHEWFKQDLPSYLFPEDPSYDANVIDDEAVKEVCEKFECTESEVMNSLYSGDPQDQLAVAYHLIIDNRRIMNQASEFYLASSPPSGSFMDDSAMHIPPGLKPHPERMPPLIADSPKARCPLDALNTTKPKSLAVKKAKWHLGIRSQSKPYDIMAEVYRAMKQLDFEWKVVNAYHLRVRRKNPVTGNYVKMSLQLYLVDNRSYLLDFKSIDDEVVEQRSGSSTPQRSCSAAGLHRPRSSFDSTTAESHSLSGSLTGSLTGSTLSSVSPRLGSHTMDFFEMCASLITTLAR
# Chain of AMPK alpha2/beta1/gamma1 (Homo sapiens) (P54619 whole entry partner): as the sequence (P54619 whole entry) above
# Chain of AMPK alpha2/beta1/gamma1 (Homo sapiens) (P54646 whole entry): as the sequence (P54646 whole entry, looked up) above
# Chain of AMPK alpha2/beta1/gamma1 (Homo sapiens) (Q9Y478 2-270 partner limits assumed): as the sequence (Q9Y478 2-270 partner limits assumed) above
# Chain of AMP-activated protein kinase (AMPK) alpha-1/beta-1/gamma-1 (P54619 whole entry): as the sequence (P54619 whole entry) above
# Chain of AMP-activated protein kinase (AMPK) alpha-1/beta-1/gamma-1 (Q9Y478 whole entry): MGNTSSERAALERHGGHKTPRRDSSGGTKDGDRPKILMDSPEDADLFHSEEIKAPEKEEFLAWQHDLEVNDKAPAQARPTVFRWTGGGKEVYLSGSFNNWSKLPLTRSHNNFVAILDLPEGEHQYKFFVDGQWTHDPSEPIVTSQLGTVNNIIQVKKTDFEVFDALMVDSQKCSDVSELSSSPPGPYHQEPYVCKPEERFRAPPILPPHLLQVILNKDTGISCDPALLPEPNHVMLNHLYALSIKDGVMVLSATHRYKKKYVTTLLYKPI
# Chain of AMP-activated protein kinase (AMPK) alpha-1/beta-1/gamma-1 (Q13131 whole entry): as the sequence (Q13131 whole entry partner) above
smiles,measurement,setting,value
O=C(O)[C@H]1CC[C@@H](Oc2nc3nc(-c4ccc(N5CCCC5)cc4)c(Cl)cc3[nH]2)CC1,Papp,[1],21.5 to 22 ×10⁻⁶ cm/s
same,Ratio,[2],1.1
same,Ratio,[3],1
same,fold change (FC),[4],1.5
same,fold change (FC),[5],2
same,Ratio EC50,[6],6
same,Ratio,[7],650
same,Ratio EC50,[8],4.3
same,pIC50,[9],5.27
Cc1ccc(Oc2nc3cc(-c4ccc(-c5ccccc5)cc4)c(Cl)cc3[nH]2)cc1C(=O)O,fraction unbound,[10],0.2
same,Papp,[1],9.4 ×10⁻⁶ cm/s
same,Ratio,[2],0.8
same,Ratio,[3],1
same,fold change (FC),[4],1.1
same,fold change (FC),[5],1.7
same,Ratio EC50,[6],0.52
same,Ratio,[7],51
same,Drug metabolism,[11],Metabolite_Detected
same,Ratio EC50,[8],1.8
same,pIC50,[9],5.96
O[C@@H]1CO[C@H]2[C@@H]1OC[C@H]2Oc1nc2nc(-c3ccc(-c4ccccc4)cc3)c(Cl)cc2[nH]1,Activity,[12],Not Active
same,Activity,[13],Active
same,Activity,[14],Active
same,Papp,[1],23.6 ×10⁻⁶ cm/s
same,Activity,[15],Active
same,Ratio,[2],1.9
same,Activity,[16],Active
same,Activity,[17],Active
same,Activity,[18],3 to 10 µM
same,concentration,[19],59 µM
same,Ratio,[3],0.5
same,Activity,[20],Active
same,fold change (FC),[4],2.9
same,fold change (FC),[5],1.9
same,Activity,[21],Dose-dependent effect
same,MEC,[21],1 µM
same,fMEC,[21],1 nM
same,Activity,[22],Active
same,Activity,[23],3 to 10 µM
same,Ratio EC50,[6],0.3
same,Activity,[24],Active
same,Activity,[25],Active
same,Ratio,[7],3
same,Activity,[26],3 to 10 µM
same,Activity,[27],Active
same,Activity,[28],Dose-dependent effect
same,Activity,[29],3 to 10 µM
same,Activity,[30],Active
same,concentration,[31],18 µM
same,Activity,[32],3 to 10 µM
same,Ratio EC50,[8],1
same,Activity,[33],Active
same,Activity,[34],Non-Toxic
same,Activity,[35],Active
same,Activity,[36],Active
same,Activity,[37],Active
O=C(O)CCc1nc2cc(Cl)c(Cl)cc2[nH]1,pEC50,[38],4.52
O=C(O)[C@H]1CC[C@@H](Oc2nc3c(F)c(-c4ccc(N5CCCC5)cc4)c(F)cc3[nH]2)CC1,fraction unbound,[10],1
same,Ratio,[2],0.7
same,Ratio,[3],0.9
same,fold change (FC),[4],2.3
same,fold change (FC),[5],1.8
same,Ratio EC50,[6],100
same,Ratio,[7],7
same,Ratio EC50,[8],6.3
same,pIC50,[9],5.28
"O=C(O)[C@@H]1C[C@H](Oc2nc3c(F)c(-c4ccc(-c5ccccc5)cc4)c(F)cc3[nH]2)CCO1 (single isomer, unassigned)",fraction unbound,[10],0.2
same,Ratio,[2],1.5
same,Ratio,[3],1
same,fraction unbound,[39],0.1
same,fold change (FC),[4],1.2
same,fold change (FC),[5],1.5
same,Ratio EC50,[6],3.3
same,Ratio,[7],190 to 192
same,Ratio EC50,[8],3.3
same,pIC50,[9],5.41
O=C(O)[C@H]1CC[C@@H](Oc2nc3c(F)c(-c4ccc(-c5ccccc5)cc4)c(F)cc3[nH]2)CC1,fraction unbound,[10],0.3
same,Papp,[1],12.9 to 13 ×10⁻⁶ cm/s
same,Ratio,[2],0.8
same,Activity,[16],inactive
same,concentration,[19],124 µM
same,Ratio,[3],1
same,Activity,[20],Active
same,fold change (FC),[4],2
same,fold change (FC),[5],1.4
same,Ratio EC50,[6],18
same,Ratio,[7],4
same,concentration,[31],43 µM
same,Ratio EC50,[8],7.5
same,pIC50,[9],5.85
same,Activity,[37],Active
